One assay deals with T1, Human CD73 (Homo sapiens, UniProt P21589).
T1 construct: purchased R&D Systems; host or cells: CHO cells
T1 sequence (P21589 27-549): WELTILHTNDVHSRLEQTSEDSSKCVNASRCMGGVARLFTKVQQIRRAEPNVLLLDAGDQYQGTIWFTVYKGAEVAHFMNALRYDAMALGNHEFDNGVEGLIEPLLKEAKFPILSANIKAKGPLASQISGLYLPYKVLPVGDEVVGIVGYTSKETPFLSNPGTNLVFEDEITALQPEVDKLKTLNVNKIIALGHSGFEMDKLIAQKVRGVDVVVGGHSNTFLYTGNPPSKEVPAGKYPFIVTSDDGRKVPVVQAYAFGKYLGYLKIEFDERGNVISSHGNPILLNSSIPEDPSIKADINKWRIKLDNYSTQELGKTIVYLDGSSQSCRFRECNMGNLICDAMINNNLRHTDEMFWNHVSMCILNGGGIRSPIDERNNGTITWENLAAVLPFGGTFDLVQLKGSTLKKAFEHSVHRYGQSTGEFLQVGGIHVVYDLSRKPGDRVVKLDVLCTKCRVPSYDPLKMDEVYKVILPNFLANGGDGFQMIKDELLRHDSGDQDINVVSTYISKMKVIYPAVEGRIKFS
Nature of the assay: CD73 Enzyme Assay. In kind it is biochemical. Particulars: 0.25 nM hCD73, 25 μM AMP, kinetic read at 360 nm; read-out: CD73 Enzyme Assay IC50.

Assay [1] deals with T2, CD73 on U138 human neuroglioma cells (Homo sapiens, UniProt P21589).
T2 construct: U138 cells were obtained from ATCC and cultured in DMEM with 10% FBS; host or cells: U138 human neuroglioma cells
T2 sequence (P21589 27-549): T1 sequence (P21589 27-549)
As to the kind of experiment: CD73 Cell-Based Assay. Particulars: U138 cells, AMP substrate, 2 hours at 37° C., inorganic phosphate by malachite green. Here is the method: U138 human neuroglioma cells were used in these experiments. U138 cells were obtained from ATCC and cultured in DMEM with 10% FBS. 2500 cells were seeded into 96-well plate with 100 μL of media the day before the experiment. Cells were washed twice with 200 μL of assay buffer (20 mM HEPES, pH 7.4; 137 mM NaCl; 5.4 mM KCl; 1.3 mM CaCl2); 4.2 mM NaHCO3; 1 mg/mL glucose) to remove residual inorganic phosphate. After washing, 100 μL of buffer was added to each well, then 100 μL of a mixture of AMP substrate (200 μM) and diluted compound was added to each well. The cells were incubated at 37° C. (with 5% CO2) for 2 hours. 50 μL of supernatant was transferred to a 96-well assay plate and the concentration of inorganic phosphate was determined using malachite green reagent (R&D System; Cat: DY996).

From patent publication US11591355B2 (Peloton Therapeutics, Inc., priority 2017, dated 2023) come the findings set out here.

For `C[C@@H](Nc1nc(C#N)nc2c1cnn2[C@@H]1O[C@H](CS(=O)(=O)CP(=O)(O)O)[C@@H](O)[C@H]1O)c1ccc(F)cc1` [Compound 291, [(2S,3S,4R,5R)-5-[6-cyano-4-[[(1R)-1-(4-fluorophenyl)ethyl]-amino]pyrazolo[3,4-d]-pyrimidin-1-yl]-3,4-dihydroxy-tetrahydro-furan-2-yl]methyl-sulfonylmethylphos-phonic acid], the IC50 (on Human CD73; in assay [1]) was < 10 nM throughout.

As for `N#Cc1nc(N2CCC(F)(F)C2)c2ccn([C@@H]3O[C@H](COCP(=O)(O)O)[C@@H](O)[C@H]3O)c2n1` [Compound 125, [(2R,3S,4R,5R)-5-[2-cyano-4-(3,3-difluoropyrrolidin-1-yl)-pyrrolo[2,3-d]-pyrimidin-7-yl]-3,4-dihydroxy-tetrahydro-furan-2-yl]methoxy-methylphosphonic acid], the IC50 (at Human CD73; in assay [1]) was < 10 nM throughout.

`CN(C)c1nc(C#N)nc2c1ccn2[C@@H]1O[C@H](COCP(=O)(O)O)[C@@H](O)[C@H]1O` [Compound 107, [(2R,3S,4R,5R)-5-[2-cyano-4-(dimethyl-amino)pyrrolo[2,3-d]-pyrimidin-7-yl]-3,4-dihydroxy-tetrahydro-furan-2-yl]methoxy-methylphosphonic acid]: the IC50 (at Human CD73; in assay [1]) was 10 to 100 nM throughout.

Take `O=P(O)(O)COC[C@H]1O[C@@H](n2ncc3c(NC4CCCC4)nc(Cl)nc32)[C@H](O)[C@@H]1O` [Compound 240, ((((2R,3S,4R,5R)-5-(6-chloro-4-(cyclopentylamino)-1H-pyrazolo[3,4-d]pyrimidin-1-yl)-3,4-dihydroxytetrahydrofuran-2-yl)methoxy)methyl)phosphonic acid]: the half-inhibitory concentration (IC50) (on Human CD73; in assay [1]) was < 10 nM each time.

On to `CCOc1nc(NC2CCCC2)c2ccn([C@@H]3O[C@H](COCP(=O)(O)O)[C@@H](O)[C@H]3O)c2n1` [Compound 262, [(2R,3S,4R,5R)-5-[4-(cyclopentylamino)-2-ethoxy-pyrrolo[2,3-d]-pyrimidin-7-yl]-3,4-dihydroxy-tetrahydro-furan-2-yl]methoxy-methylphosphonic acid], for which the IC50 (at Human CD73; in assay [1]) was 10 to 100 nM throughout.

As to `O=P(O)(O)COC[C@H]1O[C@@H](n2ccc3c(N4CCOCC4)nc(Cl)nc32)[C@H](O)[C@@H]1O` [Compound 100, [(2R,3S,4R,5R)-5-(2-chloro-4-morpholino-pyrrolo[2,3-d]-pyrimidin-7-yl)-3,4-dihydroxy-tetrahydro-furan-2-yl]methoxy-methylphosphonic acid], the IC50 (on Human CD73; in assay [1]) was 10 to 100 nM each time.

Consider `COCC#Cc1nc(NC2CCCC2)c2ccn([C@@H]3O[C@H](COCP(=O)(O)O)[C@@H](O)[C@H]3O)c2n1` [Compound 252, [(2R,3S,4R,5R)-5-[4-(cyclopentylamino)-2-(3-methoxyprop-1-ynyl)pyrrolo[2,3-d]-pyrimidin-7-yl]-3,4-dihydroxy-tetrahydro-furan-2-yl]methoxy-methylphosphonic acid], for which the IC50 (on Human CD73; in assay [1]) was < 10 nM each time.

Take `CC(C)Nc1nc(Cl)nc2c1ccn2[C@@H]1O[C@H](CS(=O)(=O)CP(=O)(O)O)[C@@H](O)[C@H]1O` [Compound 162, [(2S,3S,4R,5R)-5-[2-chloro-4-(isopropyl-amino)pyrrolo[2,3-d]-pyrimidin-7-yl]-3,4-dihydroxy-tetrahydro-furan-2-yl]methyl-sulfonylmethylphos-phonic acid]: the IC50 (at Human CD73; in assay [1]) was 10 to 100 nM each time.

Turning to `C[C@H](Nc1nc(Cl)nc2c1ccn2[C@@H]1O[C@H](COCP(=O)(O)O)[C@@H](O)[C@H]1O)c1cccc(F)c1` [Compound 74, [(2R,3S,4R,5R)-5-[2-chloro-4-[[(1S)-1-(3-fluorophenyl)ethyl]-amino]pyrrolo[2,3-d]-pyrimidin-7-yl]-3,4-dihydroxy-tetrahydro-furan-2-yl]methoxy-methylphosphonic acid], the IC50 on Human CD73 was < 10 nM; in assay [1], 10 to 100 nM.

`O=P(O)(O)COC[C@H]1O[C@@H](n2cnc3c(NC4CCCC4)ncnc32)[C@H](O)[C@@H]1O` [Compound 32, [(2R,3S,4R,5R)-5-[6-(cyclopentylamino)-purin-9-yl]-3,4-dihydroxy-tetrahydro-furan-2-yl]methoxy-methylphosphonic acid]: the IC50 (at Human CD73; in assay [1]) was 100 to 1000 nM throughout.

`N#Cc1nc(NC2CC(F)(F)C2)c2cnn([C@@H]3O[C@H](CS(=O)(=O)CP(=O)(O)O)[C@@H](O)[C@H]3O)c2n1` [Compound 292, [(2S,3S,4R,5R)-5-[6-cyano-4-[(3,3-difluoro-difluorocyclobutyl)-amino]pyrazolo[3,4-d]-pyrimidin-1-yl]-3,4-dihydroxy-tetrahydro-furan-2-yl]methyl-sulfonylmethylphos-phonic acid]: the IC50 (at Human CD73; in assay [1]) was < 10 nM in each case.

Regarding `CC(C)(C)C(=O)OCOP(=O)(O)CS(=O)(=O)C[C@H]1O[C@@H](n2ccc3c(NC4CCCC4)nc(Cl)nc32)[C@H](O)[C@@H]1O` [Compound 161, [(2S,3S,4R,5R)-5-[2-chloro-4-(cyclopentyl-amino)pyrrolo[2,3-d]-pyrimidin-7-yl]-3,4-dihydroxy-tetrahydro-furan-2-yl]methyl-sulfonylmethyl-(2,2-dimethylpropanoyl-oxymethoxy)phos-phinic acid], the IC50 (on Human CD73; in assay [1]) was < 10 nM throughout.

For `C[C@H](c1ccccc1)N(C)c1nc(Cl)nc2c1ccn2[C@@H]1O[C@H](COCP(=O)(O)O)[C@@H](O)[C@H]1O` [Compound 124, [(2R,3S,4R,5R)-5-[2-chloro-4-[methyl-[(1R)-1-phenylethyl]-amino]pyrrolo[2,3-d]-pyrimidin-7-yl]-3,4-dihydroxy-tetrahydro-furan-2-yl]methoxy-methylphosphonic acid], the IC50 (at Human CD73; in assay [1]) was < 10 nM in each case.

In the case of `O=P(O)(O)COC[C@H]1O[C@@H](n2ccc3c(N4CCC(F)(F)C4)nc(Cl)nc32)[C@H](O)[C@@H]1O` [Compound 123, [(2R,3S,4R,5R)-5-[2-chloro-4-(3,3-difluoro-pyrrolidin-1-yl)pyrrolo-[2,3-d]pyrimidin-7-yl]-3,4-dihydroxy-tetrahydrofuran-2-yl]-methoxymethylphos-phonic acid], the IC50 (at Human CD73; in assay [1]) was < 10 nM each time.

Turning to `O=P(O)(O)COC[C@H]1O[C@@H](n2ccc3c(N4CCCCC4)nc(Cl)nc32)[C@H](O)[C@@H]1O` [Compound 126, [(2R,3S,4R,5R)-5-[2-chloro-4-(1-piperidyl)-pyrrolo[2,3-d]-pyrimidin-7-yl]-3,4-dihydroxy-tetrahydro-furan-2-yl]methoxy-methylphosphonic acid], the IC50 at Human CD73 is 10 to 100 nM; in assay [1], < 10 nM.

With `O=P(O)(O)COC[C@H]1O[C@@H](n2cnc3c(NCc4ccccc4)cc(Cl)nc32)[C@H](O)[C@@H]1O` [Compound 57, [(2R,3S,4R,5R)-5-[7-(benzylamino)-5-chloro-imidazo[4,5-b]pyridin-3-yl]-3,4-dihydroxy-tetrahydrofuran-2-yl]methoxymethylphosphonic acid], the IC50 (at Human CD73; in assay [1]) was 100 to 1000 nM in each case.

As to `O=P(O)(O)COC[C@H]1O[C@@H](n2ccc3c(Nc4ccccc4)nc(Cl)nc32)[C@H](O)[C@@H]1O` [Compound 211, [(2R,3S,4R,5R)-5-(4-anilino-2-chloro-pyrrolo[2,3-d]-pyrimidin-7-yl)-3,4-dihydroxy-tetrahydro-furan-2-yl]methoxy-methylphosphonic acid], the IC50 (at Human CD73; in assay [1]) was 100 to 1000 nM in each case.

Regarding `O=P(O)(O)CS(=O)(=O)C[C@H]1O[C@@H](n2ccc3c(NC4CCC4)nc(Cl)nc32)[C@H](O)[C@@H]1O` [Compound 172, [(2S,3S,4R,5R)-5-[2-chloro-4-(cyclobutyl-amino)pyrrolo[2,3-d]-pyrimidin-7-yl]-3,4-dihydroxy-tetrahydro-furan-2-yl]methyl-sulfonylmethylphos-phonic acid], the IC50 (at Human CD73; in assay [1]) was < 10 nM throughout.

Take `O=P(O)(O)COC[C@H]1O[C@@H](n2ccc3c(NC4CCCC4)nc(C(F)F)nc32)[C@H](O)[C@@H]1O` [Compound 239, [(2R,3S,4R,5R)-5-[4-(cyclopentylamino)-2-(difluoromethyl)pyrrolo-[2,3-d]pyrimidin-7-yl]-3,4-dihydroxy-tetra-hydrofuran-2-yl]-methoxymethylphos-phonic acid]: the IC50 in assay [1] lay in the range of 10 to 100 nM.

For orientation: IC50 means the point on the concentration scale where inhibition reaches its midpoint.
